Data taken from patent publication US12097213B2, “Sequential treatment of cancers using 6-thio-dG, checkpoint inhibitors and radiation therapy” (The Board of Regents of the University of Texas System, priority 2020, dated 2024).

Tests used:
[1] = tested on: HCT116 human colon cancer cells; assay: Cell viability assay (CellTiter 96), HCT116; type: cell-based; conditions: HCT-116, 120 h, cells treated for 5 days
Experimental: (§1) Cell viability assay. For determination of IC50 with cell proliferation assays, murine and human cancer cell lines were screened with 6-thio-dG with a 2-fold dilution series in 8 different points in 96-well plates. Cells were plated 24 hrs prior to the addition of drug, incubated for 4-5 days, and assayed using CellTiter 96® Aqueous One Solution Cell Proliferation Assay according to the manufacturer's instructions (Promega). Cell number per well ranged from 1,000 to 10,000 cells per well inversely proportional to doubling times. Dose response curves were generated and IC50s calculated using Graphpad Prism. All samples were analyzed in triplicate and standard deviations are from 2-3 independent experiments.

[2] = tested on: CT26 murine colon cancer cells; assay: Cell viability assay (CellTiter 96), CT26; type: cell-based, mouse
Experimental: as §1

[3] = tested on: A375 human melanoma cancer cells; assay: Cell viability assay (CellTiter 96), A375; type: cell-based; conditions: treated for 4 days
Experimental: as §1

[4] = tested on: MC38 cells; assay: Colony formation assay; type: cell-based, mouse; conditions: 0.5 μM 6-thio-dG every three days for 13 days
Experimental: Colony formation assay. MC38 cells were seeded in three different concentrations on six well plates (1000-4000 cells/well) and treated with various drug concentrations every 3-4 days. Following 13 days treatment, cells were fixed and stained with 6% glutaraldehyde (Fisher Scientific) plus 0.5% crystal violet (Sigma) solution. After washing with tap water, cells were air-dried and images captured using a G-BOX (Syngene, model: G-BOX F3).

[5] = tested on: CT26 tumor cells; assay: CT26 tumor growth and treatment in mice; type: in vivo, mouse; conditions: BALB/C mice; 3 mg/kg, three days treatment (days 5, 6, 7)
Experimental: Tumor growth and treatment. A total of 5×10^5 MC38, 5×10^5 CT26 or 1×10^6 LLC cells were inoculated subcutaneously into right dorsal flanks of the mice in 100 μL phosphate buffered saline (PBS). Tumor-bearing mice were randomly grouped into treatment groups when tumors grew to around 100 mm^3. For 6-thio-dG single treatment, 3 mg/kg 6-thio-dG was intraperitoneally given on days 7, 8 and 9 in MC38 tumor and LLC tumor and on days 5, 6, 7 for CT26 tumor. For CSF1R, NKL.1, CD4+ and CD8+ T cell depletion, 200 μg of antibodies were intraperitoneally injected 1 day before treatment initiation and then twice a week for 2 weeks. For PD-L1 blockade combination therapy in MC38 model, 6-thio-dG was given on day 10 and day 11, 50 μg PD-L1 was intraperitoneally injected on day 13 and 17. For PD-L1 blockade combination therapy in LLC model, 6-thio-dG was given on day 4, 5, 6, 10 and 11, 200 μg PD-L1 was intraperitoneally injected on day 8 and 13. Tumor volumes were measured by the length (a), width (b) and height (h) and calculated as tumor volume=abh/2.

[6] = tested on: tumor infiltrating lymphocytes (TILs); assay: Flow cytometry of tumor infiltrating cells in MC38 tumor-bearing mice; type: in vivo, mouse
Experimental: Tumor digestion. Tumor tissues were excised and digested with 1 mg/mL Collagenase I (Sigma) and 0.5 mg/mL DNase I (Roche) in the 37° C. for 30 mins, tumor was then passed through a 70 μm cell strainer to remove large pieces of undigested tumor. Tumor infiltrating cells were washed twice with PBS containing 2 mM EDTA. Flow cytometry analysis. Single cell suspensions of cells were incubated with anti-FcγIII/II receptor (clone 2.4G2) for 15 minutes to block the non-specific binding before staining with the conjugated antibodies, and then incubated with indicated antibody for 30 mins at 4° C. in the dark. Fixable viability Dye eFlour 506 or eFlour780 (eBioscience) was used to exclude the dead cells. Foxp3 and Ki67 were stained intracellularly by using True-Nuclear transcription factor buffer set (BioLegend) following the manufacturer's instructions. Data were collected on CytoFLEX flow cytometer (Beckman Coulter, Inc) and analyzed by using FlowJo (Tree Star Inc., Ashland, OR) software.

[7] = tested on: HCT116 tumor cells; assay: HCT116 tumor model in NSG-SGM3 and humanized NSG-SGM3 mice; type: in vivo, mouse; conditions: three doses, 3 mg/kg
Text: Humanized mouse tumor models. Humanized mouse reconstitution was previously described (Qiao et al., 2019). Briefly, four-week-old NSG-SGM3 female mice were irradiated with 100 cGy (X-ray irradiation with X-RAD 320 irradiator) one day prior to human CD34+ cells transfer. Cord blood was obtained from UT Southwestern Parkland Hospital. Human CD34+ cells were purified from cord blood by density gradient centrifugation (Ficoll® Paque Plus, GE healthcare) followed by positive immunomagnetic selection with anti-human CD34 microbeads (Stemcell). 1×10^5 CD34+ cells were intravenously injected into each recipient mouse. 12 weeks after engraftment, humanized mice with over 50% human CD45+ cells reconstitution and age and sex matched non-humanized mice were inoculated with 1×10^6 HCT116 tumor cells subcutaneously on the right flank. 3 mg/kg 6-thio-dG was intraperitoneally given on days 7, 8 and 9. Tumor volumes were measured twice a week. Experiments were performed in compliance with UTSW Human Investigation Committee protocol and UTSW Institutional Animal Care and Use Committee.

[8] = tested on: cancer cells; conditions: depending on cell type, even including therapy resistant cancers; read-out: observed IC50 values; cited from earlier work
[9] = tested on: tumor-derived xenograft models; conditions: many tumor-derived xenograft models; cited from earlier work
[10] = 6 days after the last of three daily doses, 3 mg/kg

SMILES: Nc1nc2c(ncn2[C@H]2C[C@H](O)[C@@H](CO)O2)c(=S)[nH]1 [6-thio-dG, 6-thio-2′-deoxyguanosine]
- IC50 [1]: 730 nM
- cell viability in vitro [2]: cell viability inhibition
- sensitivity in vitro (cell viability) [3]: sensitive
- cells forming colonies [4]: less than 50%
- tumor growth [5]: significant tumor growth delay
- Treg cells (CD4+ Foxp3+) ([6]; 3 mg/kg, days 7, 8, 9): no significant changes
- tumor infiltrating NK cells ([6]; 3 mg/kg, days 7, 8, 9): increased
- PD-1 expression on CD8+ T cells (frequency and per cell basis) ([6]; 3 mg/kg, days 7, 8, 9, 7 days after first treatment): upregulated
- CD8+ T cell proliferation (Ki67 expression) ([6]; 6 days after last treatment, 3 mg/kg): significant upregulation
- frequency of CD3+ T cells in TILs [6, 10]: increase
- frequency of CD8+ T cells in TILs [6, 10]: increase
- YFP+ T cells in the tumor ([6]; IFN-γ YFP reporter mice, eleven days after last treatment): significantly increased
- tumor-specific (OVA tetramer) CD8+ T cells in tumors ([6]; MC38-OVA tumor model, 6 days after 6-thio-dG treatment): increased
- tumor growth ([7]; humanized NSG-SGM3 mice): significantly delayed tumor growth
- tumor growth ([7]; immunocompromised NSG-SGM3 mice): did not have significant difference
- IC50 [8]: 700 to 2900 nM
- side effects in xenograft models [9]: minimal side effects
- tumor response in xenograft models [9]: rapid tumor shrinkage or growth arrest
